Test results: CN104630230A, “一组特异识别大田软海绵酸的核酸适配体” (priority 2015, dated 2015)
Where two headings read alike, the source gives them in different places.

How the values were obtained:
Assay in all cases: Affinity analysis (GO separation, FAM fluorescence, saturation binding)
[1] = molecular target: 5'-FAM-labelled single-stranded DNA aptamer OA-27 (80 nt) (核酸适配体 OA-27)
[2] = molecular target: 5'-FAM-labelled ssDNA OA-22 (80 nt); conditions: 1 μM OA, 5-200 nM ssDNA, 2 h in the dark, ex 490 nm / em 520 nm
[3] = molecular target: 5'-FAM-labelled ssDNA OA-17 (80 nt); conditions: 1 μM OA, 5-200 nM ssDNA, 2 h in the dark, ex 490 nm / em 520 nm
[4] = molecular target: 5'-FAM-labelled ssDNA OA-08 (80 nt); conditions: 1 μM OA, 5-200 nM ssDNA, 2 h in the dark, ex 490 nm / em 520 nm
[5] = molecular target: 5'-FAM-labelled single-stranded DNA aptamer OA27-1 (truncated OA-27, random region 40 nt) (核酸适配体 OA27-1); conditions: OA27-1, saturation binding curve (Fig. 4B)

C=C1[C@@H](O)[C@@H]2O[C@]3(CC[C@H](/C=C/[C@@H](C)[C@@H]4CC(C)=C[C@@]5(O[C@H](C[C@@](C)(O)C(=O)O)CC[C@H]5O)O4)O3)CC[C@H]2O[C@@H]1[C@@H](O)C[C@H](C)[C@H]1O[C@@]2(CCCCO2)CC[C@H]1C [OA, Okadaic acid]
Kd ([1]; 1 μM OA, 5-200 nM ssDNA, 2 h in the dark, GO separation, ex 490 nm / em 520 nm, read-out: Kd): < 100 nM | Kd ([1]; in words, OA-27 compared with the other ssDNA sequences of the 8 tested (Fig. 4A)): 其Kd值最小 | Kd [2]: < 100 nM | Kd [3]: < 100 nM | Kd [4]: < 100 nM | Kd [5]: 39 nM
